For experiment [1], the target named is T1, recombinant human hAAC (human αA-crystallin) (Homo sapiens, UniProt P02489).
T1 sequence (P02489 1-173): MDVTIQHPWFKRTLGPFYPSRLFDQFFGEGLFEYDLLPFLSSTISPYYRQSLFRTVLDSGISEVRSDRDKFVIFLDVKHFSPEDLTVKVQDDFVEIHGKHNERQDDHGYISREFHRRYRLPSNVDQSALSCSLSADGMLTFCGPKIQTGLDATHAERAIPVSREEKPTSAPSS
Briefly: Protection from Ca+2 and UVC induced aggregation of recombinant human alpha-A crystallin (absorbance / SDS-PAGE). As to conditions: for Gel: SDS-PAGE, unaggregated AAC after UVC, compounds tested at 500 μM; for EC50: concentration needed to prevent 50% of hAAC from forming HMW aggregates when exposed to UVC in presence of Ca+2, calculated using SDS-PAGE, read-out: EC50 Biochemical. Type of experiment: biochemical. Here is the method:
FIG. 2A: SDS-PAGE showing the protection against UVC induced aggregation of human α-A-crystallin (hAAC) by disulfide and related SDMs. Shown are also efficacy of non-related SDMs. The compounds were tested at 500 μM concentration.
The potency of compounds to provide protection from Ca^+2 and UVC induced aggregation of alpha-A crystalline (ACC) was measured by monitoring the effect of Ca^+2 and UVC on recombinant human hAAC. hAAC forms HMW aggregates when exposed to UVC radiation in the presence of 10 mM Ca^+2. The aggregates lead to increased absorbance. Stock compound solutions (made in DMSO) were added to recombinant hAAC (100 ug/ml) at desired concentrations. The hAAC, with the added compound, was incubated at room temperature for 1 hour, followed by addition of 10 μl of 200 mM CaCl2) and further incubation for 5 minutes. Then, absorbance was recorded at 400 nm (T=0 Minute) followed by exposure to UVC (254 nm, 480 mJ/cm^2 per minute). Absorbance was measured again at 15 and 30 minutes. To control for compound related effects, assays were performed with or without AAC in triplicate. Percent protection or change in fold-decrease in aggregation were computed using the measured differences in absorbance. DMSO was used as control. EC50 values were calculated using the SDS-PAGE, which is defined as the concentration of SMD needed to prevent 50% of hAAC from forming HMW aggregates when exposed to UVC in presence of Ca^+2 [FIGS. 2A-2B].

The test system of a further experiment is porcine lenses. Put plainly: Ex vivo lens culture: protection from UV-induced opacification. As to conditions: porcine lenses cultured ex vivo. An excerpt: To predict whether SMDs could prevent opacification in animal models and ultimately in human patients, we assessed their ability to protect intact lenses cultured ex vivo from UV-induced opacification. As fresh human lenses are difficult to obtain, porcine lenses were used for the ex vivo studies. Porcine lenses are easy to acquire (Sierra for Medical Science, Inc., Whittier, CA) and have been used previously in ex vivo models of Presbyopia. As predicted by our biochemical assays, SMDs prevents UV-induced opacification of porcine lenses ex vivo.

By EC50 is commonly meant the concentration that produces a half-maximal response.

For the compound `O=C(O)c1ccc(SSc2ccc(C(=O)O)cc2)cc1` [Compound 1], the Gel entry in experiment [1] is recorded as “++ (″++″ score = >50% unaggregated AAC)”.
The same measure, in the same setting: next, `Nc1ccc(SSc2ccc(N)cc2)cc1` [Compound 2]: “++ (″++″ score = >50% unaggregated AAC)”.
As to `O=C(O)c1ccccc1SSc1ccccc1C(=O)O` [Compound 4], in experiment [1], the Gel entry is listed as “++ (″++″ score = >50% unaggregated AAC)” and the EC50 is 395 µM.
On to `Nc1cccc(SSc2cccc(N)c2)c1` [Compound 5], for which the Gel entry in experiment [1] is “++ (″++″ score = >50% unaggregated AAC)”.
On to `Fc1ccccc1SSc1ccccc1F` [Compound 7], for which the Gel result in experiment [1] is “+ (″+″ score = >20% to 50% unaggregated AAC)”.
In the case of `CN/C(=C\[N+](=O)[O-])NCCSCc1c[nH]c(CN(C)C)n1` [Compound 11], the Ex-vivo entry with porcine lenses was “++ (″++″ score = >50% unaggregated AAC)”. In experiment [1], the Gel entry was “++ (″++″ score = >50% unaggregated AAC)” and the EC50 is 495 µM.
On to `O=C(O)c1cc(SSc2ccc([N+](=O)[O-])c(C(=O)O)c2)ccc1[N+](=O)[O-]` [Compound 13], for which, in the experiment with porcine lenses, the Ex-vivo result was “++ (″++″ score = >50% unaggregated AAC)”. For the same compound, in experiment [1], the Gel entry was “++ (″++″ score = >50% unaggregated AAC)” and the EC50 is 191 µM.
As to `O=[N+]([O-])c1cc(C(F)(F)F)ccc1SSc1ccc(C(F)(F)F)cc1[N+](=O)[O-]` [Compound 14], the Gel result in experiment [1] was “+ (″+″ score = >20% to 50% unaggregated AAC)”.
The same measure, in the same setting: the same measure for `COc1ccc(SSc2ccc(OC)cc2)cc1` [Compound 15]: “+ (″+″ score = >20% to 50% unaggregated AAC)”; for `CC(=O)Nc1ccc(SSc2ccc(NC(C)=O)cc2)cc1` [Compound 16]: “+ (″+″ score = >20% to 50% unaggregated AAC)”; for `O=[N+]([O-])c1cc(S(=O)(=O)C(F)(F)C(F)(F)F)ccc1SSc1ccc(S(=O)(=O)C(F)(F)C(F)(F)F)cc1[N+](=O)[O-]` [Compound 18]: “+ (″+″ score = >20% to 50% unaggregated AAC)”.
On the same count and under the same terms, next, `COC(=O)c1ccccc1SSc1ccccc1C(=O)OC` [Compound 21]: “+ (″+″ score = >20% to 50% unaggregated AAC)”; `CCCNS(=O)(=O)c1cccc(C(C)=O)c1` [Compound 22]: “+ (″+″ score = >20% to 50% unaggregated AAC)”; `O=C(O)CCNS(=O)(=O)c1ccc(F)cc1` [Compound 23]: “+ (″+″ score = >20% to 50% unaggregated AAC)”.
For `CC(C)NS(=O)(=O)c1cccc(C(=O)O)c1` [Compound 24], the Ex-vivo result in the experiment on porcine lenses is given as “++ (″++″ score = >50% unaggregated AAC)”. Moreover, the Gel entry in experiment [1] is “+ (″+″ score = >20% to 50% unaggregated AAC)”.
Taken in the same sequence, the figures for `O=C(O)c1cccc(S(=O)(=O)NC2CC2)c1` [Compound 25] were “++ (″++″ score = >50% unaggregated AAC)” and “+ (″+″ score = >20% to 50% unaggregated AAC)”.
For the compound `O=C(O)c1cc(S(=O)(=O)N2CCCC2)ccc1O` [Compound 26], the Gel result in experiment [1] is on record as “++ (″++″ score = >50% unaggregated AAC)”.
Same read-out and setting: the same measure for `O=C(O)c1ccc(S(=O)(=O)N2CCCCC2)cc1` [Compound 27]: “+ (″+″ score = >20% to 50% unaggregated AAC)”; for `O=C(O)c1cccc(S(=O)(=O)N2CCCCC2)c1` [Compound 28]: “+ (″+″ score = >20% to 50% unaggregated AAC)”.
For the compound `O=C(O)c1cccc(S(=O)(=O)N2CCOCC2)c1` [Compound 29], in experiment [1], the Gel result was “+ (″+″ score = >20% to 50% unaggregated AAC)”.
Same read-out and setting: next, `O=C(O)Cc1ccc(S(=O)(=O)N2CCOCC2)s1` [Compound 30]: “++ (″++″ score = >50% unaggregated AAC)”.
The same measure, in the same setting: next, `CNC(C[N+](=O)[O-])NCCSCc1ccc(CN(C)C)o1.Cl` (centres unmarked) [Compound 31]: “+ (″+″ score = >20% to 50% unaggregated AAC)”.
Regarding `CN=C(NC#N)NCCSCc1csc(N=C(C)C)n1` [Compound 32], in experiment [1], the Gel result is “++ (″++″ score = >50% unaggregated AAC)” and the EC50 is 410 µM.
Take `Cc1cc(N2CCSSCC2)ncc1[N+](=O)[O-]` [Compound 34]: in experiment [1], the Gel entry is recorded as “++ (″++″ score = >50% unaggregated AAC)”.
Still for that read-out and setting: next, `Cc1ccnc(N2CCSSCC2)c1[N+](=O)[O-]` [Compound 35]: “++ (″++″ score = >50% unaggregated AAC)”.
Still for that read-out and setting: next, `Nc1nc(N2CCSSCC2)ncc1[N+](=O)[O-]` [Compound 36]: “+ (″+″ score = >20% to 50% unaggregated AAC)”.
For the compound `O=C1NC(=O)c2cc(NC(=O)N3CCSSCC3)ccc21` [Compound 37], in experiment [1], the Gel entry is listed as “++ (″++″ score = >50% unaggregated AAC)” and the EC50 was 370 µM.
`Cc1nn(CCC(=O)N2CCSSCC2)c(C)c1[N+](=O)[O-]` [Compound 38]: the Gel entry in experiment [1] was “+ (″+″ score = >20% to 50% unaggregated AAC)”.
As to `O=C(CSSCC(=O)Nc1cccc([N+](=O)[O-])c1)Nc1cccc([N+](=O)[O-])c1` [Compound 40], in experiment [1], the Gel result is listed as “+ (″+″ score = >20% to 50% unaggregated AAC)” and the EC50 is 365 µM.
Take `Cc1ccc(NC(=O)C(C)SSC(C)C(=O)Nc2ccc(C)c(F)c2)cc1F` (centres unmarked) [Compound 41]: the Gel entry in experiment [1] is reported as “+ (″+″ score = >20% to 50% unaggregated AAC)”.
In the case of `O=C(O)c1nsnc1NCCSSCCNc1nsnc1C(=O)O` [Compound 42], the Gel entry in experiment [1] is on record as “+ (″+″ score = >20% to 50% unaggregated AAC)”.
On to `O=C(O)CCC(=O)Nc1ccc(SSc2ccc(NC(=O)CCC(=O)O)cc2)cc1` [Compound 43], for which the Gel entry in experiment [1] was “++ (″++″ score = >50% unaggregated AAC)”.
On the same count and under the same terms, the same measure for `O=C(CSSCC(=O)Nc1ccc2ccccc2c1)Nc1ccc2ccccc2c1` [Compound 44]: “++ (″++″ score = >50% unaggregated AAC)”; for `O=C(NCCOc1ccccc1)SSC(=O)NCCOc1ccccc1` [Compound 45]: “+ (″+″ score = >20% to 50% unaggregated AAC)”.
Still for that read-out and setting: next, `Cc1ncc(CSSCc2cnc(C)c(O)c2CO)c(CO)c1O` [Compound 46]: “+ (″+″ score = >20% to 50% unaggregated AAC)”.
The same measure, in the same setting: next, `O=C(CSSCC(=O)Nc1cccc2ccccc12)Nc1cccc2ccccc12` [Compound 48]: “+ (″+″ score = >20% to 50% unaggregated AAC)”; `N#Cc1cc(C(=O)O)c(O)nc1SSc1nc(O)c(C(=O)O)cc1C#N` [Compound 50]: “+ (″+″ score = >20% to 50% unaggregated AAC)”; `CC(C)Cc1ccccc1NC(=O)CSSCC(=O)Nc1ccccc1CC(C)C` [Compound 51]: “++ (″++″ score = >50% unaggregated AAC)”.
Regarding `CCC1c2ccccc2-c2cc(NC(=O)CSSCC(=O)Nc3ccc4c(c3)c3ccccc3n4CC)ccc21` (centres unmarked) [Compound 54], the Gel entry in experiment [1] is on record as “++ (″++″ score = >50% unaggregated AAC)”.
For the compound `COc1ccccc1NC(=O)CSSCC(=O)Nc1ccccc1OC` [Compound 55], the Gel result in experiment [1] is recorded as “++ (″++″ score = >50% unaggregated AAC)”.

The values are drawn from patent US20250019352A1, “PHARMACOLOGICAL AGENTS FOR TREATING OPHTHALMIC DISEASES” (Plex Pharmaceuticals, Inc., priority 2021, published 2025).
